Data from patent publication US20260021193A1, “IMMUNOCONJUGATES AND METHODS” (Immunome, Inc., priority 2022, published 2026).

Experiments:
MDA-MB-468 = experiment: CTG assay of payloads, MDA-MB-468 cells; format: cell-based, human; conditions: Homo sapiens, MDA-MB-468; Table 1; 72 h, CellTiter-Glo
From the text: (§1) The CTG assay is a method of determining the number of viable cells in culture based on quantitation of the ATP present, an indicator of metabolically active cells. The cell assay requires the addition of a single reagent, Cell Titer Glo, in which cells are lysed and generation of a luminescent signal is produced. The luminescent signal is proportional to the amount of ATP present. The amount of ATP is directly proportional to the number of cells present in culture. For this assay, cells were ensured to be in log-phase for either Jeko-1 or MDA-MB-468. Cells were transferred to 96 wells and treated with compounds in three-fold serial dilution starting from […] (10 points dilution), for 72 h. Cell viability was analyzed with CellTiter-Glo® Luminescent Cell Viability Assay (Promega) following manufactures' instruction. Percentage of viable cells in each compound concentration was determined by normalizing with the luminescence of vehicle control and plotted into percentage of viability versus dose response curve by nonlinear fit in GraphPad Prism software.

[1] = PAMPA (Parallel Artificial Membrane Permeability Assay); format: physicochemical; set-up: dose or concentration left out as unconfirmed
From the text: PAMPA is a method which determines the permeability of substances from a donor compartment, through a lipid-infused artificial membrane into an acceptor compartment. See Ottaviani, G.; Martel, S.; Carrupt, P-A. “Parallel Artificial Membrane Permeability Assay: A New Membrane for the Fast Prediction of Passive Human Skin Permeability”, Journal of Medicinal Chemistry, 2006, 49 (13), 3948-3954). A multi-well microtitre plate is used for the donor and a membrane/acceptor compartment is placed on top; the whole assembly is commonly referred to as a “sandwich”. At the beginning of the test, the drug is added to the donor compartment, and the acceptor compartment is drug-free. After an incubation period which may include stirring, the sandwich is separated, and the amount of drug is measured in each compartment. Mass balance allows calculation of drug that remains in the membrane.
The PAMPA was performed by Pion Inc using the GIT-0 lipid and 5 mM donor solution in pH 5.0 and pH 7.4 PRISMA buffer (containing 0.05% DMSO). The higher PAMPA data has been associated with better bystander killing. (Ogitani Y.; Hagihara K.; Oitate, M.; Naito, H.; Agatsuma T. “Bystander killing effect of DS-8201a, a novel anti-human epidermal growth factor receptor 2 antibody-drug conjugate, in tumors with human epidermal growth factor receptor 2 heterogeneity” Cancer Science, 2016, 107 (7), 1039-1046).

[2] = Human liver microsome clearance (HLM CL); format: in vitro ADME; set-up: CLint scaled / half-life: dose or concentration left out as unconfirmed; conditions: human, microsomes
Experimental: Working solution was prepared by adding 5 μL of compound and control stock solution (10 mM in dimethyl sulfoxide, DMSO) to 495 μL of acetonitrile (ACN) (intermediate solution concentration: 100 μM, 99% CAN and 1% DMSO. The appropriate concentrations of microsome working solutions were prepared in 100 mM potassium phosphate buffer. After reaction plates containing mixtures of compound and microsomes were pre-incubated at 37° C. for 10 min, […] of 2 mM of NADPH and 2 mM of MgCl2 solution was added to start the reaction. The final concentrations of incubation medium were as follows: microsome—0.5 mg protein/mL, test compound/control […], NADPH—1 mM, MgCl2—1 mM, acetonitrile 0.99%, DMSO 0.01%. Incubations were performed at 37° C. for 60 min. Samples were taken out at T0, T5, T15, T30, T45 and T60, which was added intermediately to the ice-cold stop solution (acetonitrile with 200 ng/mL of to butamide and labetalol as internal standard) (125 μl), shaken for 10 min, centrifuged at 4000 rpm for 20 min at 4° C. Analytical plates were analyzed by LCMS.
(§2) Human liver microsome clearance assay assess metabolism by the cytochrome P450 system (phase I enzymes). These enzymes oxidize substrates by incorporating oxygen atoms into hydrocarbons, thus causing the introduction of hydroxyl groups, or N- O- and S-dealkylation of substrates and forming more polar products easier to be cleared. Human hepatocyte clearance assay measures more broadly the overall cellular metabolism of the test compound (phase I and phase II enzyme pathways). Phase II enzymes catalyze the conjugation reaction of xenobiotic metabolites and charged species, such as glutathione, sulfate, glycine, or glucuronic acid to form even more polar compounds for easier clearance.

[3] = Human hepatocyte clearance (HHEP CL); format: in vitro ADME; set-up: CLint scaled / half-life: dose or concentration left out as unconfirmed; conditions: both sexes, human, hepatocytes
Experimental: Suspensions of human hepatocytes (from 10 mixed gender human donors, final concentration 0.5×10^6 cell/mL) in Williams' E medium were incubated for 90 min with a test compound (0.90% acetonitrile and 0.10% DMSO, final concentration […]) and positive controls (7-Ethoxycoumarin, 7-Hydroxycoumarin, 0.90% acetonitrile and 0.10% DMSO, final concentration […]), with constant shaking at about 600 rpm at 37° C. in an incubator at 5% CO2 and 95% humidity. The total volume of incubation was 200 μl. A sample ([…]) was taken out at T0, 15, 30, 60 and 90 min, which was added intermediately to the ice-cold stop solution (acetonitrile with 200 ng/mL of to butamide and labetalol as internal standard) (125 μl), and vortexed at 500 rpm for 10 min, centrifuged at 3220×g for 20 min at 4° C. Analytical plates were sealed and stored at 4° C. until LCMS analysis. Viability of hepatocytes at pre-incubation was determined to be 84.5%.
as §2

Jeko-1 = experiment: CTG assay of payloads, Jeko-1 cells; format: cell-based, human; conditions: Homo sapiens, JeKo-1; Table 1; 72 h, CellTiter-Glo
From the text: as §1

Compound	IC50 (MDA-MB-468) [nM]	Papp ([1]; pH 5) [×10⁻⁶ cm/s]	Papp ([1]; pH 7.4) [×10⁻⁶ cm/s]	CLint scaled [2] [mL/min/kg]	half-life [2] [min]	CLint scaled [3] [mL/min/kg]	half-life [3] [min]	IC50 (Jeko-1) [nM]
CC[C@@]1(O)C(=O)OCc2c1cc1n(c2=O)Cc2c-1nc1cc(F)c(C)c3c1c2[C@](C)(N1CC[C@H](O)C1)CC3 (single isomer, unassigned) [Compound 5-41]	92.2	53.5	6.6	92.5	13.5	49.8	77	11.6
CC[C@@]1(O)C(=O)OCc2c1cc1n(c2=O)Cc2c-1nc1cc(F)c(C)c3c1c2[C@@](C)(CO)CC3 (single isomer, unassigned) [Compound 3-28]	9.9	64	8.4	53.8	23	62.9	61	1.3
CC[C@@]1(O)C(=O)OCc2c1cc1n(c2=O)Cc2c-1nc1cc(F)c(C)c3c1c2[C@](C)(CO)CC3 (single isomer, unassigned) [Compound 3-27]	18.6	62.2	8.5	128	9.7	62.4	62	2.1
CC[C@@]1(O)C(=O)OCc2c1cc1n(c2=O)Cc2c-1nc1cc(F)c(C)c3c1c2[C@](C)(N1CC[C@@H](O)C1)CC3 (single isomer, unassigned) [Compound 5-40]	69.1	52.2	6	238	5.2	102	38	10
CC[C@@]1(O)C(=O)OCc2c1cc1n(c2=O)Cc2c-1nc1cc(F)c(C)c3c1c2[C@@H](CO)CC3 (single isomer, unassigned) [Compound 1-17]	7.7	74.7	7.8	53.2	23.5	17.9	215	1
